Results as given in patent US7183415B2, “Quinoline compound” (Takeda Pharmaceutical Company Limited, priority 2001, dated 2007).

biological target: T1, SLC-1 expression CHO cell membrane fraction (MCH receptor) (UniProt Q99705); experiment: Antagonistic activity of test compound using GTP γ S binding assay; format: biochemical, human/rat; conditions: inhibition of MCH-stimulated [35S]-GTPγS binding, 25° C., 1 hr, read-out: Inhibitory activity (IC50: nM)
T1 construct: full-length coding regions in pAKKO-111H
Protocol: Using human SLC-1 expression CHO cell clone 57 obtained in Reference Example 1-10 and rat SLC-1 expression CHO cell clone 44 obtained in Reference Example 1-4, membrane fractions were prepared by the following method. In phosphate buffered saline (pH 7.4) supplemented with 5 mM EDTA (ethylenediamine tetraacetic acid) were suspended human and rat SLC-1 expression CHO cells (1×10^8) and centrifuged. Homogenate buffer (10 ml, 10 mM NaHCO3, 5 mM EDTA, pH 7.5) was added to the pellets of the cells and, using Polytron Homogeniser, the mixture was homogenated. The supernatant obtained after centrifugation at 400×g for 15 min was further centrifuged at 100,000×g for 1 hr to give precipitate of the membrane fraction. […]
The antagonistic activity of the test compound was determined as follows. […] Liquid scintillator (50 ml) was added to the glass filter and the residual radioactivity was determined by a liquid scintillation counter. Binding inhibition (%)=(radioactivity upon addition of compound and MCH−radioactivity upon addition of DMSO solution)/(radioactivity upon addition of MCH−radioactivity upon addition of DMSO solution)×100
From the binding inhibition (%), IC50 of the compound was calculated.

| Structure (SMILES) | IC50 |
| --- | --- |
| COc1ccc(-c2ccc(C(=O)Nc3ccc4cc(CN5CCCC5)cnc4c3)cn2)cc1 [Example 8, 6-(4-methoxyphenyl)-N-[3-(1-pyrrolidinylmethyl)-7-quinolinyl]nicotinamide] | 6 nM |

system: SD (Sprague Dawley) rats; experiment: Evaluation of antidepressive action by forced swim test; format: in vivo, rat; conditions: 3 mg/kg body weight, oral, 30 minutes before test, five minutes measured, n=10; control group 30.86±8.71
Protocol: By performing a forced swim test using SD (Sprague Dawley) rats (seven-week-old, male, body weight 233.3–266.9 g, purchased from Japan Clea), the antidepressive action of the compound of the present invention was evaluated.
First, a suspension of the compound of Example 19 in 0.5% methyl cellulose was orally administered to SD rats (n=10) (compound dose: 3 mg/kg body weight). Thirty minutes later, the rats were placed in a pipe (diameter 21 cm, height 50 cm) made of Plexiglass (trade name, made by Rohm & Haas, U.S.A.) containing tap water (water temperature 25±2° C., 30 cm deep). Immobility time of the rats for five minutes thereafter was measured using a digital video camera.
In addition, 0.5% methyl cellulose suspension without the compound was orally administered to SD rats (n=10), and the rats were subjected the forced swim test in the same manner as above and taken as a control group.

| Structure (SMILES) | immobility time (seconds, mean±standard deviation) |
| --- | --- |
| Cc1c(NC(=O)c2ccc(-c3ccc(F)cc3)cc2)ccc2cc(CN3CCCC3)cnc12 [Example 19, 4′-fluoro-N-[8-methyl-3-(1-pyrrolidinylmethyl)-7-quinolinyl][1,1′-biphenyl]-4-carboxamide] | 15.93 ± 5.62 s |

system: not given; experiment: not given; conditions: not given

| Structure (SMILES) | melting point |
| --- | --- |
| COc1ccc(-c2ccc(C(=O)Nc3ccc4cc(CN5CCCC5)cnc4c3)cn2)cc1 [Example 8, 6-(4-methoxyphenyl)-N-[3-(1-pyrrolidinylmethyl)-7-quinolinyl]nicotinamide] | 246 to 248 °C |
| Cc1c(NC(=O)c2ccc(-c3ccc(F)cc3)cc2)ccc2cc(CN3CCCC3)cnc12 [Example 19, 4′-fluoro-N-[8-methyl-3-(1-pyrrolidinylmethyl)-7-quinolinyl][1,1′-biphenyl]-4-carboxamide] | 220 to 222 °C |
| CCN(CC)C(=O)C1CCN(Cc2cnc3cc(NC(=O)c4ccc(-c5ccc(F)cc5)cc4)c(C)cc3c2)CC1 [Example 272, N,N-diethyl-1-[(7-{[(4′-fluoro-1,1′-biphenyl-4-yl)carbonyl]amino}-6-methyl-3-quinolinyl)methyl]piperidine-4-carboxamide] | 203 °C |
| CCNC(=O)C1CCN(Cc2cnc3cc(NC(=O)c4ccc(-c5ccc(F)cc5)cc4)c(C)cc3c2)CC1 [Example 273, N-ethyl-1-[(7-{[(4′-fluoro-1,1′-biphenyl-4-yl)carbonyl]amino}-6-methyl-3-quinolinyl)methyl]piperidine-4-carboxamide] | 254 °C |
| Cc1cc2cc(CN3CCC(C(=O)N(C)C)CC3)cnc2cc1NC(=O)c1ccc(-c2ccc(F)cc2)cc1 [Example 274, 1-[(7-{[(4′-fluoro-1,1′-biphenyl-4-yl)carbonyl]amino}-6-methyl-3-quinolinyl)methyl]-N,N-dimethylpiperidine-4-carboxamide] | 229 °C |
| CNC(=O)C1CCN(Cc2cnc3cc(NC(=O)c4ccc(-c5ccc(F)cc5)cc4)c(C)cc3c2)CC1 [Example 275, 1-[(7-{[(4′-fluoro-1,1′-biphenyl-4-yl)carbonyl]amino}-6-methyl-3-quinolinyl)methyl]-N-methylpiperidine-4-carboxamide] | 257 °C |
| Cc1cc2cc(CN3CCC(C(N)=O)CC3)cnc2cc1NC(=O)c1ccc(-c2ccc(F)cc2)cc1 [Example 276, 1-[(7-{[(4′-fluoro-1,1′-biphenyl-4-yl)carbonyl]amino}-6-methyl-3-quinolinyl)methyl]piperidine-4-carboxamide] | 265 °C |
| Cc1ccc(-c2ccc(C(=O)Nc3ccc4cc(CN5CCCC5)cnc4c3)c(F)c2)cc1 [Example 277, 3-fluoro-4′-methyl-N-[3-(1-pyrrolidinylmethyl)-7-quinolinyl][1,1′-biphenyl]-4-carboxamide] | 173 °C |
| Cc1ccc(-c2ccc(C(=O)Nc3ccc4cc(CN5CCCC5)cnc4c3F)c(F)c2)cc1 [Example 278, 3-fluoro-N-[8-fluoro-3-(1-pyrrolidinylmethyl)-7-quinolinyl]-4′-methyl[1,1′-biphenyl]-4-carboxamide] | 173 °C |
| O=C(Nc1ccc2cc(CN3CCCC3)cnc2c1F)c1ccc(-c2ccc(Cl)cc2)cc1F [Example 279, 4′-chloro-3-fluoro-N-[8-fluoro-3-(1-pyrrolidinylmethyl)-7-quinolinyl][1,1′-biphenyl]-4-carboxamide] | 208 °C |
| CN1CCc2nc3cc(NC(=O)c4ccc(-c5ccc(Cl)cc5)cc4)ccc3cc2C1 [Example 326, 4′-chloro-N-(2-methyl-1,2,3,4-tetrahydrobenzo[b][1,6]naphthyridin-7-yl)[1,1′-biphenyl]-4-carboxamide] | > 220 °C (dec.) |
| CN1CCc2nc3cc(NC(=O)c4ccc(-c5ccc(Cl)cc5)cc4F)ccc3cc2C1 [Example 328, 4′-chloro-3-fluoro-N-(2-methyl-1,2,3,4-tetrahydrobenzo[b][1,6]naphthyridin-7-yl)[1,1′-biphenyl]-4-carboxamide] | > 220 °C (dec.) |
| CCC(=O)Oc1ccc(C(=O)Nc2ccc3cc(CN4CCCC4)cnc3c2C)cc1 [Example 330, 4-({[8-methyl-3-(1-pyrrolidinylmethyl)-7-quinolinyl]amino}carbonyl)phenyl propionate] | 146 to 147 °C |
| CCCC(=O)Oc1ccc(C(=O)Nc2ccc3cc(CN4CCCC4)cnc3c2C)cc1 [Example 331, 4-({[8-methyl-3-(1-pyrrolidinylmethyl)-7-quinolinyl]amino}carbonyl)phenyl butyrate] | 156 to 158 °C |
